# Data from the Kinase Knowledgebase extract (Sharma et al. 2016).
# Assays:
# EGFR (murine) = EGFR (murine) (UniProt P00533); settings: nih3t3/c7
# EGFR (human) = EGFR (human) (UniProt P00533)
# CDK2 (human) = CDK2 (human) (UniProt P24941); assay: Enzyme Assay
# EGFR (human), sequence (P00533 whole entry, looked up): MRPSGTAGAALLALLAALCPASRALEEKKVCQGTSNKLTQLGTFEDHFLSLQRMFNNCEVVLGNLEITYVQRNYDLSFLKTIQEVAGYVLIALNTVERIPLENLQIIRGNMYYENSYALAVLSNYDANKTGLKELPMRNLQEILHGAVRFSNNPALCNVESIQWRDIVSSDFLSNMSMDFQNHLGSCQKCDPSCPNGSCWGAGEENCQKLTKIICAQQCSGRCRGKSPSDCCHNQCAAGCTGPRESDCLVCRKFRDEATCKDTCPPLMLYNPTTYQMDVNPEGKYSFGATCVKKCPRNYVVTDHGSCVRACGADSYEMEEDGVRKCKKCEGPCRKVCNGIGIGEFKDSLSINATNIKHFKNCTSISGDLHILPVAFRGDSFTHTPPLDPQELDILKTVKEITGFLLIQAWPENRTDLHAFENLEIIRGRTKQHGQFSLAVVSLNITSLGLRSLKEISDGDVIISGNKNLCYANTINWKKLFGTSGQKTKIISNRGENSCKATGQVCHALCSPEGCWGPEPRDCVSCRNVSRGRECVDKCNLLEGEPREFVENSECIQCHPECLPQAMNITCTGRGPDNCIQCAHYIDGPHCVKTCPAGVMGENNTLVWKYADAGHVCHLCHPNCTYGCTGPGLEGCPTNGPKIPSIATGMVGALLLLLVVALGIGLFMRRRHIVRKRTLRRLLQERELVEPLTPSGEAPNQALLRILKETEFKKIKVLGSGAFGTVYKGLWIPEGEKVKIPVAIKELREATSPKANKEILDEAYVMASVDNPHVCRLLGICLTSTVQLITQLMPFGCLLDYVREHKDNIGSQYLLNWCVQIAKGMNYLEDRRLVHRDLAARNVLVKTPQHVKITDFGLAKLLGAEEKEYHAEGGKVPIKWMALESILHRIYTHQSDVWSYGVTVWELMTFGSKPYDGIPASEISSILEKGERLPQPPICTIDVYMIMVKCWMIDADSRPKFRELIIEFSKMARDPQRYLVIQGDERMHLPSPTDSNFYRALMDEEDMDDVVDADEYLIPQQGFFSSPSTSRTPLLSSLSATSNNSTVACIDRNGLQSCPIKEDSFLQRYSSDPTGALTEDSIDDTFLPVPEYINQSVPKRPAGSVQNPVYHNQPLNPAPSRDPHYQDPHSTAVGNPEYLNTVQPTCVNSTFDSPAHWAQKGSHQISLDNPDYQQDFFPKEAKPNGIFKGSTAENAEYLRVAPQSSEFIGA
# EGFR (murine), sequence (P00533 whole entry, looked up): as above
SMILES,IC50 (EGFR (murine)) [µM],IC50 (EGFR (human)) [µM],IC50 (CDK2 (human)) [µM]
CCOC(=O)c1c(C)[nH]c(/C=C2\C(=O)Nc3ccc(Br)cc32)c1-c1ccccc1,> 100,,
Cc1[nH]c(/C=C2\C(=O)Nc3ccc(Cl)cc32)c(C)c1C(=O)NCCN(C)C,,> 100,
CCN(CC)CCCNC(=O)c1c(C)[nH]c(/C=C2\C(=O)Nc3cc(-c4ccccc4)ccc32)c1C,,> 100,
CCN(CC)CCCNC(=O)c1[nH]c(/C=C2\C(=O)Nc3ccc(OC)cc32)cc1C,,> 100,
CCN(CC)CCNC(=O)c1c(C)[nH]c(/C=C2\C(=O)Nc3cc(-c4cccnc4)ccc32)c1C,> 100,,
Cc1cc(C(=O)O)[nH]c1/C=C1\C(=O)Nc2ccc(Cl)cc21,> 100,,
Cc1[nH]c(/C=C2\C(=O)Nc3cc(-c4ccccc4)ccc32)c(C)c1C(=O)NCCCn1ccnc1,> 100,,
Cc1cc(C(=O)O)[nH]c1/C=C1\C(=O)Nc2ccccc21,> 100,,
CCOC(=O)CNC(=O)c1c[nH]c(/C=C2\C(=O)Nc3ccc(S(=O)(=O)NC)cc32)c1C,,> 100,
CCN(CC)CCNC(=O)c1c(C)[nH]c(/C=C2\C(=O)Nc3cc(-c4ccccc4)ccc32)c1C,> 100,,
CCOC(=O)c1cc(C)c(/C=C2\C(=O)Nc3ccc(Cl)cc32)[nH]1,> 100,,
CCOC(=O)CNC(=O)c1c[nH]c(/C=C2\C(=O)Nc3ccc(S(=O)(=O)NC)c(C)c32)c1C,,> 100,
CCN(CC)CCCNC(=O)c1c(C)[nH]c(/C=C2\C(=O)Nc3cccc(C(=O)Nc4ccc(OC)c(Cl)c4)c32)c1C,,> 100,
CCN(CC)CCCNC(=O)c1c(C)[nH]c(/C=C2\C(=O)Nc3ccc(Br)cc32)c1-c1ccccc1,,,> 20
COc1ccccc1-c1ccc2c(c1)NC(=O)/C2=C\c1[nH]c(C)c(C(=O)NCCN2CCCC2)c1-c1ccccc1,,> 100,
Cc1c(C(=O)NCCCN2CCOCC2)[nH]c(/C=C2\C(=O)Nc3ccc(Br)cc32)c1C(=O)c1ccccc1,,> 100,
CNS(=O)(=O)c1ccc2c(c1)/C(=C/c1[nH]cc(C(=O)O)c1C)C(=O)N2,,> 100,

SMILES,IC50 (EGFR (murine)) [µM],IC50 (EGFR (human)) [µM],IC50 (CDK2 (human)) [µM]
Cc1[nH]c(/C=C2\C(=O)Nc3cc(-c4ccccc4)ccc32)c(C)c1C(=O)NCCN1CCCC1,> 100,,
Cc1[nH]c(/C=C2\C(=O)Nc3cc(-c4ccccc4)ccc32)c(C)c1C(=O)NCCN(C)C,,> 100,
Cc1[nH]c(/C=C2\C(=O)Nc3ccc(S(=O)(=O)N(C)C)cc32)c(C)c1C(=O)NCCN1CCCC1,,> 100,
CCN(CC)CCNC(=O)c1c(C(C)C)[nH]c(/C=C2\C(=O)Nc3ccc(Br)cc32)c1C(C)C,,> 100,
CNS(=O)(=O)c1ccc2c(c1)/C(=C/c1[nH]cc(C(=O)NCC(=O)O)c1C)C(=O)N2,,> 100,
Cc1cc(C(=O)O)[nH]c1/C=C1\C(=O)N(C)c2ccccc21,> 100,,
CCN(CC)CCN(C)C(=O)c1ccc(/C=C2\C(=O)Nc3cc(-c4ccccc4)ccc32)[nH]1,> 100,,
CCN(CC)CCNC(=O)c1ccc(/C=C2\C(=O)Nc3cc(-c4ccccc4)ccc32)[nH]1,> 100,,
Cc1[nH]c(/C=C2\C(=O)Nc3ccc(-c4ccccc4)cc32)c(C)c1C(=O)NCCCn1ccnc1,> 100,> 100,
COc1ccccc1-c1ccc2c(c1)NC(=O)/C2=C\c1[nH]c(C)c(C(=O)NCCN(C)C)c1-c1ccccc1,,> 100,
COC(=O)c1cc(C)c(/C=C2\C(=O)Nc3ccccc32)[nH]1,> 100,,
Cc1[nH]c(/C=C2\C(=O)Nc3ccc(Br)cc32)c(C)c1C(=O)NCCCn1ccnc1,> 100,,
Cc1[nH]c(/C=C2\C(=O)Nc3ccc(Br)cc32)c(C)c1C(=O)NCCN1CCCC1,> 100,,
CCN(CC)CCNC(=O)c1c(C)[nH]c(/C=C2\C(=O)Nc3ccc(S(=O)(=O)N(C)C)cc32)c1C,,> 100,
CCN(CC)CCCNC(=O)c1[nH]c(/C=C2\C(=O)Nc3cc(OC)ccc32)cc1C,,> 100,
Cc1[nH]c(/C=C2\C(=O)Nc3cc(-c4cccnc4)ccc32)c(C)c1C(=O)NCCN1CCCC1,> 100,,
CCN(CC)CCNC(=O)c1c(C)[nH]c(/C=C2\C(=O)Nc3cc(-c4cc(Cl)cc(Cl)c4)ccc32)c1C,> 100,> 100,
